Measurements taken from paper PMC12163635, “Synthetic Retinoids for the Modulation of Genomic and Nongenomic Processes in Neurodegenerative Diseases” (ACS Omega, 2025).

Columns and labels:
RARγ = biological target: T1, RARγ (Homo sapiens, UniProt P13631); assay: Fluorescence competition binding assay (displacement of DC271); conditions: for Kd: read-out: Binding KD (± SD) RARγ; for ΔGEXP RARγ: experimental binding free energy from K D, ΔGexp=−RT ln K, 298.1 K
T1 construct: His6-3C-SUMO (cleaved yes); made in house; host or cells: E. coli BL21(DE3), pOPINS3C vector
T1 sequence (P13631 185-419 limits assumed): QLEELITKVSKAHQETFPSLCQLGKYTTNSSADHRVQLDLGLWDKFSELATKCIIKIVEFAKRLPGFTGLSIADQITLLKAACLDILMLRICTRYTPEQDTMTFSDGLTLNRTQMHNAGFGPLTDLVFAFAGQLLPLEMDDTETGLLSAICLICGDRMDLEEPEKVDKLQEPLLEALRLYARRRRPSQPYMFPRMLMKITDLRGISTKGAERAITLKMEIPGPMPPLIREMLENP
Protocol: Fluorescence competition assays were employed to determine the relative binding affinities of each synthetic retinoid toward the LBD of the RARs. The assay is based on the potential for competitive displacement of the inherently fluorescent retinoid DC271 from the LBP by a test nonfluorescent synthetic retinoid. Changes in the fluorescence were measured following the addition of a serial dilution of the test compound and the results were plotted to generate a binding curve. […] Assays were performed for both RARα and RARγ. […] Nonlinear least-squares regression analyses were performed to calculate binding affinities and reported as binding K D, the equilibrium dissociation constant between the RAR isoform and the test synthetic retinoid.
RARα/γ proteins were expressed in BL21(DE3) cells (NEB) transformed into pET50b (Novagen) and pOPINS3C vectors, respectively, carrying the gene construct and containing a His6-3C-NusA tag or His6-3C-SUMO tag used for solubility. Transformations were carried out under standard conditions using Quick Transformation Protocol (New England Biolabs). Successful transformants were grown overnight in 2xYT media (Melford) and frozen for storage at −80 °C in 50% glycerol. Expression cultures were inoculated from glycerol stocks into 25 mL of 2xYT media (Melford) with 50 μg/mL kanamycin or 100 μg/mL ampicillin (Sigma-Aldrich) and grown overnight with shaking (37 °C, 150 rpm). The overnight cultures were transferred into 1 L expression flasks (2xYT/ampicillin 100 μg/mL or 2xYT/kanamycin 50 μg/mL) and grown with shaking at 37 °C, 150 rpm. Induction was carried out at an OD600 of 0.6–0.8, with 1 mL of 1 M IPTG (1 mM in culture), before shaking overnight (20 h) at 18 °C. The resulting cultures were spun down into pellets using an Avanti Hi-Speed centrifuge (JLA 8.1000, 4000 rpm, 30 min, 4 °C), before the supernatant was removed and the bacterial pellet were frozen at −80 °C.
RARα/γ (pET50b or pOPINS3C, BL21(DE3) (NEB)) were resuspended from pellet with 20 mL Wash Buffer (20 mM Tris-HCl, 300 mM NaCl and 20 mM imidazole, pH 8) and the resulting suspension was sonicated on ice (40% power, 2 min, repeated twice with 1 min rest in-between) before centrifuging (Avanti Hi-Speed JA25.50, 20,000 rpm, 1 h, 4 °C). Supernatants were clarified using 0.45 μm syringe filters (Thermo Fisher Scientific). Affinity chromatography and size-exclusion (SEC) chromatography were carried out on AKTA Pure25 (Cytiva). Supernatants were loaded onto the HisTrap HP column (5 mL, Cytiva) and washed using 25 mL of wash Buffer. The column was washed with Wash Buffer until UV trace returned to baseline, before RARα/γ was eluted using a gradient of Elution Buffer (20 mM Tris-HCl, 300 mM NaCl, 500 mM imidazole pH 8). The resulting protein-containing fractions were analyzed by SDS-PAGE (200 V, 30 min) using SurePAGE Bis-Tris 12% precast gels (Genscript). Protein concentrations were estimated using absorbance at 280 nm on a DS-11 spectrophotometer (Denovix) with calculated molecular weights and extinction coefficients (Expasy). RAR proteins were cleaved overnight from 3C-NusA tag or 3C-SUMO-His tag using 1 Unit/100 μg protein of HRV3C protease (Thermo Fisher Scientific) at 4 °C. Solution after digestion was loaded onto a HiLoad 16/600 Superdex 75 prep-grade column (Cytiva) and cleaved RARα/γ was separated from the tag based on molecular weight and eluted from the column using SEC Buffer (20 mM Tris-HCl, 300 mM NaCl and 0.5 mM TCEP, pH 8) into 2 mL fractions. The resulting protein fractions were analyzed by SDS PAGE (200 V, 30 min) using SurePAGE Bis-Tris 12% precast gels (Genscript), before being concentrated to 5 mg/mL using centrifugal concentrators (Sartorius) and frozen at −80 °C in small aliquots for use in binding assays.

SH-SY5Y cells = assay: Neurite outgrowth; type: cell-based, human; conditions: 5 days; for fold induction at 0.01 µM: Homo sapiens, SH-SY5Y, 120 h, read-out: fold increase in neurite outgrowth; for induction of neurite outgrowth compared with ATRA: 10 nM
Protocol: Following the characterization of retinoids for their genomic and nongenomic activities, the ability of retinoids to differentiate and induce neurite outgrowth in the neuroblastoma cell line, SH-SY5Y cells, was examined (Figure ). Neurite outgrowth can be induced in this cell line by ATRA at 10 μM.
SH-SY5Y cell line as used in ERK phosphorylation and neurite outgrowth assays described below. The cells were grown in DMEM containing 10% FCS at 37 °C with 5% CO2. The medium was changed three times a week and the cells were passaged at 70% confluence using 0.05% trypsin-EDTA.
SH-SY5Y cells were plated at 10,000 cells/well in 12-well plates containing 16 mm acid-treated/poly L-lysine-coated glass coverslips. After 24 h, retinoids were added to the medium and tested at two different concentrations, 10 μM and 10 nM, with a final DMSO concentration of 0.01 or 0.0001%, respectively. The plates were incubated for 5 days at 5% CO2/37 °C. All retinoid concentrations were tested in triplicate. Cells were fixed using 4% paraformaldehyde and stained for β-III tubulin (1:1000; Sigma). For each neurite outgrowth experiment, 3 coverslips (in 3 wells) were used. ImageJ software with the NeuronJ plugin was used to quantify neurite outgrowth on stained cells in each of the 10 randomly selected images of each coverslip taken using a Nikon Eclipse E400 fluorescence microscope. The average neurite length was calculated for each image by dividing total neurite length by the total number of neurites per image.
All data are presented as mean ± SEM of three independent experiments with biological triplicates. Statistical analyses were performed in Microsoft Office Excel 2019 or GraphPad Prism 7.0c version (Prism, GraphPad Software, San Diego, CA). Neurite outgrowth data were analyzed by one-way ANOVA with Newman-Keuls multiple comparison test as appropriate; P value <0.05 was considered statistically significant. *P < 0.05, **P < 0.01. Data for X-Gal and ERK1/2 phosphorylation were analyzed using sigmoidal dose–response analysis of log (agonist) versus response curve (stimulation).

[1] = 10 nM compound, in comparison to nontreated cells

| Compound | Kd (RARγ; 100 nM RAR and DC271 on plate) | ΔGEXP RARγ (RARγ) | Binding KD (± SD) RARγ (RARγ; 100 nM RAR and DC271 on plate) | fold induction at 0.01 µM (SH-SY5Y cells; [1]) | induction of neurite outgrowth compared with ATRA (SH-SY5Y cells) | fold increase in neurite outgrowth (SH-SY5Y cells; [1]) |
| --- | --- | --- | --- | --- | --- | --- |
| CC1(C)CCC(C)(C)c2cc(C#Cc3cc(F)c(C(=O)O)c(F)c3)ccc21 [Compound 15, 2,6-Difluoro-4-[2-(5,5,8,8-tetramethyl-5,6,7,8-tetrahydronaphthalen-2-yl)ethynyl]benzoic Acid] | 0.0227 µM | -10.4 kcal/mol |  | 1.7 |  |  |
| COc1cc2c(cc1C#Cc1ccc(C(=O)O)cn1)C(C)(C)CCC2(C)C [Compound 27, 6-[2-(3-Methoxy-5,5,8,8-tetramethyl-5,6,7,8-tetrahydronaphthalen-2-yl)ethynyl]pyridine-3-carboxylic Acid] | 2.15 µM | -7.76 kcal/mol |  | 1.7 |  |  |
| Cc1cc2c(cc1C#Cc1ccc(C(=O)O)cn1)C(C)(C)CCC2(C)C [Compound 26, 6-[2-(3,5,5,8,8-Pentamethyl-5,6,7,8-tetrahydronaphthalen-2-yl)ethynyl]pyridine-3-carboxylic Acid] | 0.0905 µM | -9.61 kcal/mol |  |  | unable to induce neurite outgrowth | no response |
| Cc1cc2c(cc1C#Cc1ccc(C(=O)O)cc1F)C(C)(C)CCC2(C)C [Compound 18, 3-Fluoro-4-[2-(3,5,5,8,8-pentamethyl-5,6,7,8-tetrahydronaphthalen-2-yl)ethynyl]benzoic Acid] | 0.0186 µM | -10.6 kcal/mol |  |  | induced neurite outgrowth but not significantly compared to ATRA |  |
| Cc1sc(-c2ccc(C(=O)O)c(F)c2)nc1-c1cnc2c(n1)C(C)(C)CCC2(C)C [Compound 42, 2-Fluoro-4-[5-methyl-4-(5,5,8,8-tetramethyl-5,6,7,8-tetrahydroquinoxalin-2-yl)-1,3-thiazol-2-yl]benzoic Acid] | 0.133 µM | -9.46 kcal/mol |  | 1.7 |  |  |
| Cc1cc2c(cc1C#Cc1ncc(C(=O)O)cn1)C(C)(C)CCC2(C)C [Compound 28, 2-[2-(3,5,5,8,8-Pentamethyl-5,6,7,8-tetrahydronaphthalen-2-yl)ethynyl]pyrimidine-5-carboxylic Acid] | 0.75 µM | -8.36 kcal/mol |  |  | induced neurite outgrowth but not significantly compared to ATRA |  |
| Cc1sc(-c2ccc(C(=O)O)cc2F)nc1-c1cnc2c(n1)C(C)(C)CCC2(C)C [Compound 43, 3-Fluoro-4-[5-methyl-4-(5,5,8,8-tetramethyl-5,6,7,8-tetrahydroquinoxalin-2-yl)-1,3-thiazol-2-yl]benzoic Acid] | 2.71 µM | -7.74 kcal/mol |  | 1.8 |  |  |
| Cc1sc(-c2ccc(C(=O)O)cc2)nc1-c1cnc2c(n1)C(C)(C)CCC2(C)C [Compound 40, 4-[5-Methyl-4-(5,5,8,8-tetramethyl-5,6,7,8-tetrahydroquinoxalin-2-yl)-1,3-thiazol-2-yl]benzoic Acid] | 0.655 µM | -8.44 kcal/mol |  | 1.9 |  |  |
| COc1cc2c(cc1C#Cc1cc(F)c(C(=O)O)c(F)c1)C(C)(C)CCC2(C)C [Compound 22, 2,6-Difluoro-4-[2-(3-methoxy-5,5,8,8-tetramethyl-5,6,7,8-tetrahydronaphthalen-2-yl)ethynyl]benzoic Acid] | 0.355 µM | -8.81 kcal/mol |  |  | induced neurite outgrowth but not significantly compared to ATRA |  |

Now from value to molecule, other results behind:

| Kd (RARγ; 100 nM RAR and DC271 on plate) | ΔGEXP RARγ (RARγ) | Binding KD (± SD) RARγ (RARγ; 100 nM RAR and DC271 on plate) | Compound | fold induction at 0.01 µM (SH-SY5Y cells; [1]) | induction of neurite outgrowth compared with ATRA (SH-SY5Y cells) | fold increase in neurite outgrowth (SH-SY5Y cells; [1]) |
| --- | --- | --- | --- | --- | --- | --- |
|  | Non-competitive Binding | noncompetitive binding | CC1(C)CCC(C)(C)c2cc(C#Cc3cnc(C(=O)O)cn3)ccc21 [Compound 25, 5-[2-(5,5,8,8-Tetramethyl-5,6,7,8-tetrahydronaphthalen-2-yl)ethynyl]pyrazine-2-carboxylic Acid] |  | induced neurite outgrowth but not significantly compared to ATRA |  |
| 0.0186 µM | -10.6 kcal/mol |  | CC1(C)CCC(C)(C)c2cc(C#Cc3ccc(C(=O)O)c(F)c3)ccc21 [Compound 13, 2-Fluoro-4-[2-(5,5,8,8-tetramethyl-5,6,7,8-tetrahydronaphthalen-2-yl)ethynyl]benzoic Acid] | 1.9 |  |  |
| 0.016 µM | -10.7 kcal/mol |  | CC1(C)CCC(C)(C)c2cc(C#Cc3ccc(C(=O)O)cc3F)ccc21 [Compound 14, 3-Fluoro-4-[2-(5,5,8,8-tetramethyl-5,6,7,8-tetrahydronaphthalen-2-yl)ethynyl]benzoic Acid] | 2.1 |  |  |
| 0.254 µM | -9.00 kcal/mol |  | CC1(C)CCC(C)(C)c2cc(C#Cc3ccc(C(=O)O)nc3)ccc21 [Compound 24, 5-[2-(5,5,8,8-Tetramethyl-5,6,7,8-tetrahydronaphthalen-2-yl)ethynyl]pyridine-2-carboxylic Acid] | 2.2 | significantly induced neurite outgrowth compared to ATRA |  |
